The values that follow are results of earlier work, collected in US20120064155A1, “ORAL PHARMACEUTICAL COMPOSITION FOR USE IN RESPIRATORY DISEASES” (LABORATORIOS SENOSIAIN S.A. DE C.V., priority 2009, published 2012).

Converted amounts (≈) assume the structure as drawn.

The conditions of series [1]: after oral administration; approximately.

`CCOC(=O)N1CCC(=C2c3ccc(Cl)cc3CCc3cccnc32)CC1` [Loratadine]: the “start of antihistamine effect” value in series [1] was not above 30 min.

With `CNC[C@H](O)c1cccc(O)c1` [Phenylephrine], the water solubility is 100 mg/mL (≈ 598 mM). For the same compound, the “bound to plasma proteins” value in the series with plasma proteins is given as 95%.
